Measurements published in ChEMBL document CHEMBL1201862, “PubChem BioAssay data set” (2004).
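Method: 48-hour compound exposure of cells in 96-well plates, five concentrations, linear interpolation of endpoints. GI50: concentration for 50% inhibition of growth.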 Active and inactive are the calls of the source. Rule as the data show it: active = GI50 up to about 1.1 µM and inactive = higher.

Experiments:
Test in all cases: growth of human tumour cells (NCI), 48 h
NCI-H226 = test system: NCI-H226
RPMI-8226 = test system: RPMI-8226
TK-10 = test system: TK-10
SK-MEL-28 = test system: SK-MEL-28
SW-620 = test system: SW-620
SK-MEL-5 = test system: SK-MEL-5
NCI-H23 = test system: NCI-H23
SK-OV-3 = test system: SK-OV-3
CAKI-1 = test system: CAKI-1
HCC 2998 = test system: HCC 2998
MOLT-4 = test system: MOLT-4
COLO 205 = test system: COLO 205
Malme-3M = test system: Malme-3M
SF-295 = test system: SF-295
A498 = test system: A498
HL-60 = test system: HL-60

Measured: GI50

O=C(O)[C@H](NS(=O)(=O)c1ccc(F)cc1)c1ccccc1
inactive: NCI-H226 > 100 µM | RPMI-8226 > 100 µM | TK-10 > 100 µM | SK-MEL-28 > 100 µM | SW-620 > 100 µM | SK-MEL-5 > 100 µM | NCI-H23 > 100 µM | SK-OV-3 > 100 µM | CAKI-1 > 100 µM | HCC 2998 > 100 µM | MOLT-4 > 100 µM | COLO 205 > 100 µM | Malme-3M > 100 µM | SF-295 > 100 µM

COC(=O)C1C(C(=O)OC)C2C(=O)C3C(C(=O)OC)C(C(=O)OC)C3C(=O)C12 (stereo not given)
inactive: NCI-H226 > 100 µM | A498 > 100 µM | TK-10 > 100 µM | SK-MEL-28 > 100 µM | SW-620 > 100 µM | NCI-H23 > 100 µM | SK-OV-3 > 100 µM | CAKI-1 > 100 µM | HCC 2998 > 100 µM | MOLT-4 > 100 µM | COLO 205 > 100 µM | HL-60 > 100 µM | Malme-3M > 100 µM | SF-295 > 100 µM

CN/C(=N/C#N)NCc1ccccc1
inactive: NCI-H226 > 100 µM | A498 > 100 µM | RPMI-8226 > 100 µM | TK-10 > 100 µM | SK-MEL-28 > 100 µM | SW-620 > 100 µM | SK-MEL-5 > 100 µM | NCI-H23 > 100 µM | SK-OV-3 > 100 µM | CAKI-1 > 100 µM | HCC 2998 27.4 µM | MOLT-4 > 100 µM | COLO 205 > 100 µM | HL-60 > 100 µM | Malme-3M > 100 µM | SF-295 > 100 µM

C=C[Si](C)(C)COC(=O)/C(C#N)=C/C=C/c1ccccc1
inactive: NCI-H226 > 100 µM | RPMI-8226 37.2 µM | SK-MEL-28 > 100 µM | SW-620 76 µM | SK-MEL-5 > 100 µM | NCI-H23 > 100 µM | SK-OV-3 > 100 µM | HCC 2998 > 100 µM | MOLT-4 28.7 µM | COLO 205 > 100 µM | HL-60 39.2 µM | Malme-3M > 100 µM | SF-295 > 100 µM

CC12CC(=O)NN=C1c1ccccc1C2 (stereo not given)
inactive: NCI-H226 > 100 µM | A498 > 100 µM | RPMI-8226 > 100 µM | TK-10 > 100 µM | SK-MEL-28 > 100 µM | SW-620 > 100 µM | SK-MEL-5 > 100 µM | NCI-H23 > 100 µM | SK-OV-3 > 100 µM | CAKI-1 > 100 µM | HCC 2998 > 100 µM | MOLT-4 > 100 µM | COLO 205 > 100 µM | HL-60 > 100 µM | Malme-3M > 100 µM | SF-295 > 100 µM

Cc1nc2ccccc2nc1CC(=O)C(=O)Nc1ccc(Cl)cc1Cl
inactive: A498 > 100 µM | RPMI-8226 > 100 µM | TK-10 > 100 µM | SK-MEL-28 > 100 µM | SW-620 > 100 µM | SK-MEL-5 > 100 µM | NCI-H23 > 100 µM | SK-OV-3 > 100 µM | CAKI-1 > 100 µM | HCC 2998 > 100 µM | MOLT-4 > 100 µM | COLO 205 > 100 µM | HL-60 > 100 µM | Malme-3M > 100 µM | SF-295 > 100 µM

Cc1nc(N)nc(N)c1CCCCc1ccccc1
inactive: A498 18.2 µM | RPMI-8226 20.8 µM | TK-10 43.2 µM | SK-MEL-28 > 10 µM | SW-620 13.7 µM | SK-MEL-5 4.39 µM | NCI-H23 4.29 µM | SK-OV-3 31.9 µM | CAKI-1 23.4 µM | HCC 2998 10.7 µM | MOLT-4 5.3 µM | COLO 205 8.43 µM | HL-60 4.55 µM | Malme-3M 13.3 µM | SF-295 6.65 µM

CC1OC(OC2C(CO)OC(O[C@H]3CC[C@@]4(C)C(=CC[C@H]5[C@@H]6C[C@@H]7O[C@]8(CC[C@@H](C)CN8)[C@@H](C)[C@@H]7[C@@]6(C)CC[C@@H]54)C3)C(O)C2O)C(O)C(O)C1O (stereo not given in full)
inactive: A498 > 100 µM | RPMI-8226 > 100 µM | TK-10 > 100 µM | SK-MEL-28 31.8 µM | SW-620 > 100 µM | SK-MEL-5 > 100 µM | NCI-H23 > 100 µM | SK-OV-3 > 100 µM | CAKI-1 > 100 µM | MOLT-4 > 100 µM | COLO 205 > 100 µM | HL-60 > 100 µM | Malme-3M > 100 µM | SF-295 > 100 µM

COc1cc2cccc(/N=C\c3cccc(OC)c3OC(C)C)c2cc1OC
inactive: A498 56.9 µM | RPMI-8226 13.2 µM | TK-10 25.6 µM | SK-MEL-28 24.3 µM | SW-620 21 µM | SK-MEL-5 24.8 µM | NCI-H23 23.4 µM | SK-OV-3 25.2 µM | CAKI-1 24 µM | HCC 2998 35.9 µM | MOLT-4 19.1 µM | COLO 205 36.2 µM | Malme-3M 22.3 µM | SF-295 19 µM

COc1ccc([N+]2=NC(c3ccc([N+](=O)[O-])cc3)=NN(c3ccccc3)C2)cc1
inactive: NCI-H226 52.4 µM | A498 41.6 µM | RPMI-8226 24.7 µM | TK-10 > 100 µM | SK-MEL-28 70.8 µM | SW-620 68.4 µM | SK-MEL-5 21 µM | NCI-H23 55.8 µM | HCC 2998 > 100 µM | MOLT-4 21.6 µM | COLO 205 68.2 µM | HL-60 18.6 µM | Malme-3M > 100 µM | SF-295 > 10 µM

COc1ccc(C2C(C(=O)O)=C(CO)Oc3cc4c(cc32)OCO4)c(OC)c1 (stereo not given)
inactive: RPMI-8226 > 100 µM | TK-10 > 100 µM | SK-MEL-28 46.2 µM | SW-620 > 100 µM | SK-MEL-5 42.8 µM | NCI-H23 > 100 µM | SK-OV-3 > 100 µM | CAKI-1 88.1 µM | MOLT-4 22.5 µM | COLO 205 68.7 µM | HL-60 > 100 µM | Malme-3M > 100 µM | SF-295 62.7 µM

CC(C)=CC(=O)CC(=O)C(=O)Nc1ccc(C)c(C)c1
inactive: NCI-H226 > 100 µM | RPMI-8226 > 100 µM | TK-10 > 100 µM | SK-MEL-28 > 100 µM | SW-620 > 100 µM | NCI-H23 > 100 µM | SK-OV-3 > 100 µM | CAKI-1 > 100 µM | MOLT-4 > 100 µM | HL-60 > 100 µM | Malme-3M > 100 µM | SF-295 > 100 µM

O=[N+]([O-])c1ccc(C2=Nn3cnnc3SC2)o1
inactive: NCI-H226 26.4 µM | A498 16.3 µM | RPMI-8226 14.6 µM | TK-10 39.7 µM | SK-MEL-28 16.6 µM | SW-620 12.2 µM | SK-MEL-5 16.4 µM | NCI-H23 > 10 µM | SK-OV-3 > 10 µM | CAKI-1 > 10 µM | HCC 2998 15.8 µM | MOLT-4 20 µM | HL-60 14.8 µM | Malme-3M > 10 µM | SF-295 18.3 µM

O/N=C1/C(=C/c2ccc(OCc3ccccc3)cc2)CCCC1C(NO)c1ccc(OCc2ccccc2)cc1 (stereo not given)
inactive: NCI-H226 > 100 µM | A498 > 100 µM | SK-MEL-28 48.4 µM | SW-620 17.4 µM | SK-MEL-5 6.04 µM | NCI-H23 12.7 µM | SK-OV-3 > 100 µM | CAKI-1 5.87 µM | HCC 2998 46 µM | MOLT-4 5.6 µM | COLO 205 16.9 µM | HL-60 5.57 µM | Malme-3M 46.5 µM

O=C(Nc1ccc([N+](=O)[O-])cc1[N+](=O)[O-])C(=O)C(C(=O)c1ccc(Cl)c(Cl)c1)C1OC(=O)c2ccccc21 (stereo not given)
inactive: NCI-H226 12.4 µM | A498 21.4 µM | RPMI-8226 25 µM | TK-10 32.1 µM | SW-620 20.6 µM | NCI-H23 17.3 µM | SK-OV-3 23.2 µM | CAKI-1 38 µM | HCC 2998 > 10 µM | MOLT-4 14.6 µM | COLO 205 21.6 µM | HL-60 28.9 µM | Malme-3M 26.3 µM | SF-295 17.8 µM

Cc1cc2nc3c(=O)[nH]c(=O)nc-3n(CC(O)C(O)C(O)CO)c2cc1N (stereo not given)
inactive: NCI-H226 > 100 µM | A498 > 100 µM | RPMI-8226 > 100 µM | TK-10 > 100 µM | SK-MEL-28 > 100 µM | SW-620 > 100 µM | SK-MEL-5 > 100 µM | NCI-H23 > 100 µM | SK-OV-3 > 100 µM | HCC 2998 > 100 µM | MOLT-4 > 100 µM | COLO 205 > 100 µM | HL-60 > 100 µM | SF-295 > 100 µM

C/C=N\N1C(=O)c2ccccc2C1=O
inactive: NCI-H226 > 100 µM | A498 > 100 µM | RPMI-8226 > 100 µM | TK-10 > 100 µM | SK-MEL-28 > 100 µM | SW-620 > 100 µM | SK-MEL-5 > 100 µM | NCI-H23 > 100 µM | CAKI-1 > 100 µM | HCC 2998 > 100 µM | MOLT-4 > 100 µM | HL-60 > 100 µM | Malme-3M > 100 µM | SF-295 > 100 µM

CC(=O)Nc1[nH]n(C)c(=O)c1-c1nnc(C)s1
inactive: NCI-H226 > 100 µM | A498 > 100 µM | RPMI-8226 > 100 µM | TK-10 > 100 µM | SK-MEL-28 > 100 µM | SW-620 > 100 µM | SK-MEL-5 > 100 µM | NCI-H23 > 100 µM | SK-OV-3 > 100 µM | CAKI-1 > 100 µM | HCC 2998 > 100 µM | MOLT-4 > 100 µM | COLO 205 > 100 µM | HL-60 > 100 µM | Malme-3M > 100 µM

CCCN(CCC)C(=O)Cc1c2n(c3ccccc13)Cc1ccccc1-2
inactive: NCI-H226 > 100 µM | RPMI-8226 59 µM | TK-10 > 100 µM | SK-MEL-28 > 100 µM | SW-620 > 100 µM | SK-MEL-5 29.6 µM | NCI-H23 45.7 µM | SK-OV-3 > 100 µM | CAKI-1 30.1 µM | HCC 2998 > 100 µM | MOLT-4 > 100 µM | COLO 205 95.3 µM | HL-60 28.8 µM | Malme-3M 58.9 µM | SF-295 33.8 µM
